Results taken from PubChem BioAssay AID1259407 (Chemical Carcinogenesis Research Information System (CCRIS), 2018).
Activity calls are given as the source filed them. How the calls were made is not given here.

Tested on: CCRIS mutagenicity, Ames/micronucleus/aberration tests
Test: CCRIS mutagenicity studies
[1] = Test System: AMES SALMONELLA TYPHIMURIUM, Strain/Indicator: TA98, Metabolic Activation: NONE, Method: PREINCUBATION
[2] = Test System: AMES SALMONELLA TYPHIMURIUM, Strain/Indicator: TA100, Metabolic Activation: NONE, Method: PREINCUBATION
[3] = Test System: AMES SALMONELLA TYPHIMURIUM, Strain/Indicator: TA100, Metabolic Activation: RAT, LIVER, S-9, PHENOBARBITAL AND 5,6-BENZOFLAVONE, Method: PREINCUBATION

In the case of `CC(=O)Oc1cc(C=O)cc2c1C(COC(N)=O)C1(OC(C)=O)ON2CC2C1N2C(C)=O` (configuration not stated), the mutagenic call [1] is reported as “inactive; negative”, the mutagenic call (Test System: AMES SALMONELLA TYPHIMURIUM, Strain/Indicator: TA98, Metabolic Activation: RAT, LIVER, S-9, PHENOBARBITAL AND 5,6-BENZOFLAVONE, Method: PREINCUBATION) is reported as “inactive; negative” and the mutagenic call [2] is reported as “inactive; negative”. For the same compound, the mutagenic call [3] was “inactive; negative”, the mutagenic call (Test System: AMES SALMONELLA TYPHIMURIUM, Strain/Indicator: TA102, Metabolic Activation: NONE, Method: PREINCUBATION) was “inactive; negative” and the mutagenic call (Test System: AMES SALMONELLA TYPHIMURIUM, Strain/Indicator: TA102, Metabolic Activation: RAT, LIVER, S-9, PHENOBARBITAL AND 5,6-BENZOFLAVONE, Method: PREINCUBATION) was “active; positive”. The mutagenic call (Test System: AMES SALMONELLA TYPHIMURIUM, Strain/Indicator: TA1535, Metabolic Activation: NONE, Method: PREINCUBATION) was “inactive; negative”, the mutagenic call (Test System: AMES SALMONELLA TYPHIMURIUM, Strain/Indicator: TA1535, Metabolic Activation: RAT, LIVER, S-9, PHENOBARBITAL AND 5,6-BENZOFLAVONE, Method: PREINCUBATION) was “inactive; negative” and the mutagenic call (Test System: AMES SALMONELLA TYPHIMURIUM, Strain/Indicator: TA1537, Metabolic Activation: NONE, Method: PREINCUBATION) was “inactive; negative”. The mutagenic call (Test System: AMES SALMONELLA TYPHIMURIUM, Strain/Indicator: TA1537, Metabolic Activation: RAT, LIVER, S-9, PHENOBARBITAL AND 5,6-BENZOFLAVONE, Method: PREINCUBATION) was “inactive; negative”.
For `CCOc1ccc(N(O)C(=O)CC(C)O)cc1` (configuration not stated), the mutagenic call (Test System: AMES SALMONELLA TYPHIMURIUM, Strain/Indicator: TA100, Metabolic Activation: HAMSTER, LIVER, S-9, KANECHLOR 400 (WITHOUT NADPH GENERATING SYSTEM), Method: PREINCUBATION) was “active; positive” and the mutagenic call [2] was “inactive; negative”.
With `CCc1c(O)c2c(c(O)c1OC)C(=O)C(OC)=C(OC)C2=O` the mutagenic call (Test System: AMES SALMONELLA TYPHIMURIUM, Strain/Indicator: TA98, Metabolic Activation: MICROSOMAL FRACTION, FULLY ACTIVATED, AND RAT LIVER S-9, Method: STANDARD PLATE) was “inactive; negative”, the mutagenic call (Test System: AMES SALMONELLA TYPHIMURIUM, Strain/Indicator: TA98, Metabolic Activation: MICROSOMAL FRACTION, NON-FULLY ACTIVATED, Method: STANDARD PLATE) was “inactive; negative” and the mutagenic call (Test System: AMES SALMONELLA TYPHIMURIUM, Strain/Indicator: TA100, Metabolic Activation: MICROSOMAL FRACTION, FULLY ACTIVATED, AND RAT LIVER S-9, Method: STANDARD PLATE) was “inactive; negative”. The mutagenic call (Test System: AMES SALMONELLA TYPHIMURIUM, Strain/Indicator: TA100, Metabolic Activation: MICROSOMAL FRACTION, NON-FULLY ACTIVATED, Method: STANDARD PLATE) was “inactive; negative”, the mutagenic call (Test System: AMES SALMONELLA TYPHIMURIUM, Strain/Indicator: TA1537, Metabolic Activation: MICROSOMAL FRACTION, FULLY ACTIVATED, AND RAT LIVER S-9, Method: STANDARD PLATE) was “inactive; negative” and the mutagenic call (Test System: AMES SALMONELLA TYPHIMURIUM, Strain/Indicator: TA1537, Metabolic Activation: MICROSOMAL FRACTION, NON-FULLY ACTIVATED, Method: STANDARD PLATE) was “inactive; negative”.
For `Clc1ccc2ccccc2n1`, the mutagenic call [1] was “inactive; negative”, the mutagenic call (Test System: AMES SALMONELLA TYPHIMURIUM, Strain/Indicator: TA98, Metabolic Activation: RAT, LIVER, S-9, Method: PREINCUBATION) was “inactive; negative” and the mutagenic call [2] was “inactive; negative”. For the same compound, the mutagenic call [3] was “inactive; negative” and the mutagenic call (Test System: AMES SALMONELLA TYPHIMURIUM, Strain/Indicator: TA100, Metabolic Activation: RAT, LIVER, S-9, Method: PREINCUBATION) was “inactive; negative”.
With `O=c1cccc2c1ccc1[nH]c3ccc4ccccc4c3cc12` the mutagenic call (Test System: AMES SALMONELLA TYPHIMURIUM, Strain/Indicator: TA100, Metabolic Activation: GUINEA PIG, LIVER, S-9, 3-METHYLCHOLANTHRENE, Method: STANDARD PLATE) was “inactive; negative” and the mutagenic call (Test System: CHINESE HAMSTER V-79, Strain/Indicator: V-79/6-THIOGUANINE, Metabolic Activation: GUINEA PIG, LIVER, S-9, 3-METHYLCHOLANTHRENE) was “inactive; negative”.
For `C/C=N/O`, the mutagenic call (Test System: AMES SALMONELLA TYPHIMURIUM, Strain/Indicator: TA98, Metabolic Activation: HAMSTER, LIVER, S-9, AROCLOR 1254, Method: STANDARD PLATE) was “inactive; negative”, the mutagenic call (Test System: AMES SALMONELLA TYPHIMURIUM, Strain/Indicator: TA98, Metabolic Activation: NONE, Method: STANDARD PLATE) was “inactive; negative” and the mutagenic call (Test System: AMES SALMONELLA TYPHIMURIUM, Strain/Indicator: TA98, Metabolic Activation: RAT, LIVER, S-9, AROCLOR 1254, Method: STANDARD PLATE) was “inactive; negative”. The mutagenic call (Test System: AMES SALMONELLA TYPHIMURIUM, Strain/Indicator: TA100, Metabolic Activation: HAMSTER, LIVER, S-9, AROCLOR 1254, Method: STANDARD PLATE) was “inactive; negative”, the mutagenic call (Test System: AMES SALMONELLA TYPHIMURIUM, Strain/Indicator: TA100, Metabolic Activation: NONE, Method: STANDARD PLATE) was “inactive; negative” and the mutagenic call (Test System: AMES SALMONELLA TYPHIMURIUM, Strain/Indicator: TA100, Metabolic Activation: RAT, LIVER, S-9, AROCLOR 1254, Method: STANDARD PLATE) was “inactive; negative”. The mutagenic call (Test System: AMES SALMONELLA TYPHIMURIUM, Strain/Indicator: TA102, Metabolic Activation: RAT, LIVER, S-9, PHENOBARBITAL AND 5,6-BENZOFLAVONE, Method: STANDARD PLATE) was “inactive; negative”, the mutagenic call (Test System: AMES SALMONELLA TYPHIMURIUM, Strain/Indicator: TA1535, Metabolic Activation: HAMSTER, LIVER, S-9, AROCLOR 1254, Method: STANDARD PLATE) was “inactive; negative” and the mutagenic call (Test System: AMES SALMONELLA TYPHIMURIUM, Strain/Indicator: TA1535, Metabolic Activation: NONE, Method: STANDARD PLATE) was “inactive; negative”. For the same compound, the mutagenic call (Test System: AMES SALMONELLA TYPHIMURIUM, Strain/Indicator: TA1535, Metabolic Activation: RAT, LIVER, S-9, AROCLOR 1254, Method: STANDARD PLATE) was “inactive; negative”, the mutagenic call (Test System: AMES SALMONELLA TYPHIMURIUM, Strain/Indicator: TA1537, Metabolic Activation: HAMSTER, LIVER, S-9, AROCLOR 1254, Method: STANDARD PLATE) was “inactive; negative” and the mutagenic call (Test System: AMES SALMONELLA TYPHIMURIUM, Strain/Indicator: TA1537, Metabolic Activation: NONE, Method: STANDARD PLATE) was “inactive; negative”. The mutagenic call (Test System: AMES SALMONELLA TYPHIMURIUM, Strain/Indicator: TA1537, Metabolic Activation: RAT, LIVER, S-9, AROCLOR 1254, Method: STANDARD PLATE) was “inactive; negative”, the mutagenic call (Test System: AMES SALMONELLA TYPHIMURIUM, Strain/Indicator: TA1538, Metabolic Activation: HAMSTER, LIVER, S-9, AROCLOR 1254, Method: STANDARD PLATE) was “inactive; negative” and the mutagenic call (Test System: AMES SALMONELLA TYPHIMURIUM, Strain/Indicator: TA1538, Metabolic Activation: NONE, Method: STANDARD PLATE) was “inactive; negative”. The mutagenic call (Test System: AMES SALMONELLA TYPHIMURIUM, Strain/Indicator: TA1538, Metabolic Activation: RAT, LIVER, S-9, AROCLOR 1254, Method: STANDARD PLATE) was “inactive; negative”, the mutagenic call (Test System: AMES SALMONELLA TYPHIMURIUM, Strain/Indicator: TA2638, Metabolic Activation: RAT, LIVER, S-9, PHENOBARBITAL AND 5,6-BENZOFLAVONE, Method: STANDARD PLATE) was “inactive; negative” and the mutagenic call (Test System: E. COLI, Strain/Indicator: WP2 (PKM101), Metabolic Activation: RAT, LIVER, S-9, PHENOBARBITAL AND 5,6-BENZOFLAVONE, Method: STANDARD PLATE) was “inactive; negative”. The mutagenic call (Test System: E. COLI, Strain/Indicator: WP2 UVRA (PKM101), Metabolic Activation: RAT, LIVER, S-9, PHENOBARBITAL AND 5,6-BENZOFLAVONE, Method: STANDARD PLATE) was “inactive; negative”, the mutagenic call (Test System: MOUSE LYMPHOMA, Strain/Indicator: L5178Y (TK+/TK-), Metabolic Activation: RAT, LIVER, S-9, AROCLOR 1254, Method: SUSPENSION/PLATE) was “active; positive. reevaluation of results: inconclusive” and the mutagenic call (Test System: Mouse lymphoma, Strain/Indicator: L5178Y (tk+tk-), Metabolic Activation: None, Method: Suspension/plate) was “inactive; negative”. The mutagenic call (Test System: Mouse lymphoma, Strain/Indicator: L5178Y (tk+tk-), Metabolic Activation: Rat, Liver, S-9, Aroclor 1254, Method: Suspension/plate) was “active; inconclusive (previously evaluated positive)”.
